According to ChEMBL document CHEMBL1137904, “Design, synthesis, and evaluation of oxyanion-hole selective inhibitor substituents for the S1 subsite of factor Xa” (Bioorg Med Chem Lett, 2004):

Assay: In vitro inhibitory activity towards Coagulation factor X was determined using chromogenic substrate, MeO-COD-CHG-Gly-Arg-pNA

SMILES | Ki
N=C(N)c1ccc(CCN)cc1 | 750 µM
CS(=O)(=O)c1ccc(C(=N)N)cc1 | 1800 µM
CP(=O)(O)c1ccc2c(N)nccc2c1 | > 5000 µM
CN(C)c1ccc(P(C)(=O)O)cc1 | 4100 µM
N=C(N)c1ccccc1 [BENZAMIDINE] | 349 µM

The next lines start with the values.

Ki | SMILES
197 µM | N=C(N)c1ccc(N)cc1
55 µM | N=C(N)c1ccc(CO)cc1
607 µM | N=C(N)c1ccc(CCO)cc1
429 µM | N=C(N)c1ccc(CN)cc1
30 µM | N=C(N)c1ccc(O)cc1
193 µM | CS(=O)(=O)CCc1ccc(C(=N)N)cc1
> 5000 µM | CS(=O)(=O)Cc1ccc(C(=N)N)cc1
